Laboratory results reported in article PMC10653547, “Synergistic effect of two antimicrobial peptides, BP203 and MAP-0403 J-2 with conventional antibiotics against colistin-resistant Escherichia coli and Klebsiella pneumoniae clinical isolates” (PLOS ONE, 2023).
Values after ≈ are worked out from the molar mass of the structure shown. Positions of bridges follow the written chain, without caps; N, C: chain ends. Non-standard residues stand in square brackets, D forms with d. Residues, ends and D or L forms follow the SMILES beside them. *: point of attachment. X1 = CC[C@H](C)CCCCC(=O)*; Dab = NCC[C@H](N)C(=O)O

Assays:
[1] = test system: colistin-resistant E. coli clinical isolates; assay: Colistin susceptibility by broth microdilution (CLSI); assay type: cell-based, Escherichia coli; settings: for COL MIC: broth microdilution
Experimental: (§1) Ten non-duplicate clinical isolates of colistin-resistant E. coli (EC) and ten non-duplicate clinical isolates of colistin-resistant K. pneumoniae (KP) were obtained from the bacterial repository of the Division of Infectious Diseases and Tropical Medicine, Department of Medicine, Faculty of Medicine Siriraj Hospital, Mahidol University. The species identification was conducted through standard biochemical tests. Antimicrobial susceptibility testing was carried out using the disk diffusion method following CLSI guidelines. Additionally, the assessment of colistin resistance in all isolates was performed by broth microdilution following CLSI recommendations. […] The amino acid sequences of BP203 and MAP-0403 J-2 were retrieved from previous studies. These peptides are BP100 and MAP-0403 analogs, respectively. […] Antibiotic disks and defibrinated sheep blood were obtained from Oxoid (Basingstoke, UK). All culture media were purchased from Becton Dickinson (Frankin Lakes, NJ, USA). All chemicals were obtained from Sigma-Aldrich (St. Louis, MO, USA).

[2] = test system: colistin-resistant K. pneumoniae clinical isolates; assay: Checkerboard assay for synergy testing; assay type: cell-based, Klebsiella pneumoniae
Experimental: (§2) The synergistic activities of various two-antimicrobial combinations against colistin-resistant E. coli and K. pneumoniae isolates were evaluated using the checkerboard assay, which was performed in 96-well plates. […] Two-fold serial dilutions of peptides and antibiotics were independently prepared in CAMHB. Afterward, a mixture of different concentrations of the antibiotics and peptides was added to the wells of the microplates. Antibiotics and peptides were also dispended alone in the first row and the first column, respectively. Bacterial inoculum was added to the 96-well plate to achieve a final concentration of 5 × 10^5 CFU/mL. Then, plates were incubated at 37 °C for 20–24 h. MICs were recorded as the minimum concentration of antimicrobial agents without bacterial growth. The interaction between the antimicrobials was determined by calculating the fractional inhibitory concentration index (FICI) according to the formula: FICI = FIC(drug A) + FIC(drug B), where FIC = the MIC of the drug when in the combination/MIC of drug tested individually.

[3] = test system: colistin-resistant E. coli clinical isolates; assay: Checkerboard assay for synergy testing; assay type: cell-based, Escherichia coli
Experimental: as §2

[4] = test system: colistin-resistant K. pneumoniae clinical isolates; assay: Colistin susceptibility by broth microdilution (CLSI); assay type: cell-based, Klebsiella pneumoniae; settings: for COL MIC: broth microdilution
Experimental: as §1

[5] = test system: MRC-5 (CCL-171) normal lung fibroblast cells; assay: Cytotoxicity assay using MTT; assay type: cell-based, human; settings: 24 h exposure
Experimental: MRC-5 (CCL-171) cell line, a representative of normal lung fibroblast cells, was used to investigate the cytotoxic effects of two AMPs, BP203 and MAP-0403 J-2. The cells were grown in Dulbecco’s Modified Eagle Medium (DMEM, Cytiva Life Sciences, Marlborough, MA, USA), supplemented with 10% fetal bovine serum (FBS), 1% penicillin (10,000 U/mL) and streptomycin (10,000 μg/mL) (Gibco, Waltham, MA, USA). 2×10^4 cells were seeded into each well of a 96-well plate and allowed to adhere for 24 h. Then, these cells were subjected to exposure to a medium containing a prepared two-fold serial dilution of BP203 or MAP-0403 J-2. […] 3-(4,5-Dimethylthiazol-2-yl)-2,5-Diphenyltetrazolium Bromide (MTT) was introduced into each well to achieve a concentration of 0.5 mg/mL followed by 4 h. incubation. Subsequently, formazan crystals were dissolved through the addition of 100 μL of a solubilizing solution composed of 10% SDS in 0.1 N HCl and the developed color was measured using a microtiter plate reader at an optical density (OD) of 570 nm. Cell viability was calculated as follows: (ODsample/ODcontrol) × 100.

[6] = checkerboard BP203 x colistin, KP-01
[7] = checkerboard BP203 x colistin, KP-02
[8] = checkerboard BP203 x colistin, KP-03
[9] = checkerboard BP203 x colistin, KP-04
[10] = checkerboard BP203 x colistin, KP-05
[11] = checkerboard BP203 x colistin, KP-06
[12] = checkerboard BP203 x colistin, KP-07
[13] = checkerboard BP203 x colistin, KP-08
[14] = checkerboard BP203 x colistin, KP-09
[15] = checkerboard BP203 x colistin, KP-10
[16] = checkerboard MAP-0403 J-2 x colistin, KP-01
[17] = checkerboard MAP-0403 J-2 x colistin, KP-02
[18] = checkerboard MAP-0403 J-2 x colistin, KP-03
[19] = checkerboard MAP-0403 J-2 x colistin, KP-04
[20] = checkerboard MAP-0403 J-2 x colistin, KP-05
[21] = checkerboard MAP-0403 J-2 x colistin, KP-06
[22] = checkerboard MAP-0403 J-2 x colistin, KP-07
[23] = checkerboard MAP-0403 J-2 x colistin, KP-08
[24] = checkerboard MAP-0403 J-2 x colistin, KP-09
[25] = checkerboard MAP-0403 J-2 x colistin, KP-10
[26] = checkerboard BP203 x colistin, EC-01
[27] = checkerboard BP203 x colistin, EC-02
[28] = checkerboard BP203 x colistin, EC-03
[29] = checkerboard BP203 x colistin, EC-04
[30] = checkerboard BP203 x colistin, EC-05
[31] = checkerboard BP203 x colistin, EC-06
[32] = checkerboard BP203 x colistin, EC-07
[33] = checkerboard BP203 x colistin, EC-08
[34] = checkerboard BP203 x colistin, EC-09
[35] = checkerboard BP203 x colistin, EC-10
[36] = checkerboard MAP-0403 J-2 x colistin, EC-01
[37] = checkerboard MAP-0403 J-2 x colistin, EC-02
[38] = checkerboard MAP-0403 J-2 x colistin, EC-03
[39] = checkerboard MAP-0403 J-2 x colistin, EC-04
[40] = checkerboard MAP-0403 J-2 x colistin, EC-05
[41] = checkerboard MAP-0403 J-2 x colistin, EC-06
[42] = checkerboard MAP-0403 J-2 x colistin, EC-07
[43] = checkerboard MAP-0403 J-2 x colistin, EC-08
[44] = checkerboard MAP-0403 J-2 x colistin, EC-09
[45] = checkerboard MAP-0403 J-2 x colistin, EC-10

`CC[C@H](C)CCCCC(=O)N[C@@H](CCN)C(=O)N[C@H](C(=O)N[C@@H](CCN)C(=O)N[C@H]1CCNC(=O)[C@H]([C@@H](C)O)NC(=O)[C@H](CCN)NC(=O)[C@H](CCN)NC(=O)[C@H](CC(C)C)NC(=O)[C@@H](CC(C)C)NC(=O)[C@H](CCN)NC1=O)[C@@H](C)O` [COL, colistin] (X1-[Dab]T[Dab][Dab][Dab][dL]L[Dab][Dab]T; lactam 4-C) was tested, and the “%Resistance” value [1] was 100%, the “COL MIC” value ([1]; EC-01) was 4 µg/mL and the “COL MIC” value ([1]; EC-02) was 4 µg/mL. For the same molecule, the “COL MIC” value ([1]; EC-03) was 4 µg/mL, the “COL MIC” value ([1]; EC-04) was 4 µg/mL and the “COL MIC” value ([1]; EC-05) was 4 µg/mL. For the same molecule, the “COL MIC” value ([1]; EC-06) was 4 µg/mL, the “COL MIC” value ([1]; EC-07) was 8 µg/mL and the “COL MIC” value ([1]; EC-08) was 8 µg/mL. The “COL MIC” value ([1]; EC-09) was 16 µg/mL, the “COL MIC” value ([1]; EC-10) was 16 µg/mL and the “MICs, all isolates” value ([1]; all E. coli isolates) was at least 4 µg/mL. The MIC alone [2, 6] was 4 µg/mL, the MIC combination [2, 6] was 4 µg/mL and the MIC alone [2, 7] was 8 µg/mL. The MIC combination [2, 7] was 8 µg/mL, the MIC alone [2, 8] was 32 µg/mL and the MIC combination [2, 8] was 32 µg/mL. The MIC alone [2, 9] was 16 µg/mL, the MIC combination [2, 9] was 16 µg/mL and the MIC alone [2, 10] was 16 µg/mL. The MIC combination [2, 10] was 16 µg/mL, the MIC alone [2, 11] was 16 µg/mL and the MIC combination [2, 11] was 16 µg/mL. It also gave an MIC alone [2, 12] of 64 µg/mL, an MIC combination [2, 12] of 0.5 µg/mL and an MIC alone [2, 13] of 128 µg/mL. It also gave an MIC combination [2, 13] of 128 µg/mL, an MIC alone [2, 14] of 32 µg/mL and an MIC combination [2, 14] of 16 µg/mL. It also gave an MIC alone [2, 15] of 128 µg/mL, an MIC combination [2, 15] of 64 µg/mL and an MIC alone [2, 16] of 4 µg/mL. For the same molecule, the MIC combination [2, 16] was 4 µg/mL, the MIC alone [2, 17] was 8 µg/mL and the MIC combination [2, 17] was 8 µg/mL. The MIC alone [2, 18] was 32 µg/mL, the MIC combination [2, 18] was 32 µg/mL and the MIC alone [2, 19] was 16 µg/mL. It also gave an MIC combination [2, 19] of 16 µg/mL, an MIC alone [2, 20] of 16 µg/mL and an MIC combination [2, 20] of 16 µg/mL. It also gave an MIC alone [2, 21] of 16 µg/mL, an MIC combination [2, 21] of 16 µg/mL and an MIC alone [2, 22] of 64 µg/mL. For the same molecule, the MIC combination [2, 22] was 128 µg/mL, the MIC alone [2, 23] was 128 µg/mL and the MIC combination [2, 23] was 128 µg/mL. For the same molecule, the MIC alone [2, 24] was 32 µg/mL, the MIC combination [2, 24] was 32 µg/mL and the MIC alone [2, 25] was 128 µg/mL. For the same molecule, the MIC combination [2, 25] was 64 µg/mL, the MIC alone [3, 26] was 4 µg/mL and the MIC combination [3, 26] was 2 µg/mL. It also gave an MIC alone [3, 27] of 4 µg/mL, an MIC combination [3, 27] of 2 µg/mL and an MIC alone [3, 28] of 4 µg/mL. It also gave an MIC combination [3, 28] of 1 µg/mL, an MIC alone [3, 29] of 4 µg/mL and an MIC combination [3, 29] of 2 µg/mL. The MIC alone [3, 30] was 4 µg/mL, the MIC combination [3, 30] was 2 µg/mL and the MIC alone [3, 31] was 4 µg/mL. The MIC combination [3, 31] was 4 µg/mL, the MIC alone [3, 32] was 8 µg/mL and the MIC combination [3, 32] was 4 µg/mL. It also gave an MIC alone [3, 33] of 8 µg/mL, an MIC combination [3, 33] of 8 µg/mL and an MIC alone [3, 34] of 16 µg/mL. It also gave an MIC combination [3, 34] of 8 µg/mL, an MIC alone [3, 35] of 16 µg/mL and an MIC combination [3, 35] of 2 µg/mL. The MIC alone [3, 36] was 4 µg/mL, the MIC combination [3, 36] was 0.5 µg/mL and the MIC alone [3, 37] was 4 µg/mL. The MIC combination [3, 37] was 1 µg/mL, the MIC alone [3, 38] was 4 µg/mL and the MIC combination [3, 38] was 0.5 µg/mL. It also gave an MIC alone [3, 39] of 4 µg/mL, an MIC combination [3, 39] of 2 µg/mL and an MIC alone [3, 40] of 4 µg/mL. It also gave an MIC combination [3, 40] of 1 µg/mL, an MIC alone [3, 41] of 4 µg/mL and an MIC combination [3, 41] of 2 µg/mL. It also gave an MIC alone [3, 42] of 8 µg/mL, an MIC combination [3, 42] of 2 µg/mL and an MIC alone [3, 43] of 8 µg/mL. For the same molecule, the MIC combination [3, 43] was 2 µg/mL, the MIC alone [3, 44] was 16 µg/mL and the MIC combination [3, 44] was 4 µg/mL. The MIC alone [3, 45] was 16 µg/mL, the MIC combination [3, 45] was 4 µg/mL and the “%Resistance” value [4] was 100%. For the same molecule, the “COL MIC” value ([4]; KP-01) was 4 µg/mL, the “COL MIC” value ([4]; KP-02) was 8 µg/mL and the “COL MIC” value ([4]; KP-03) was 32 µg/mL. For the same molecule, the “COL MIC” value ([4]; KP-04) was 16 µg/mL, the “COL MIC” value ([4]; KP-05) was 16 µg/mL and the “COL MIC” value ([4]; KP-06) was 16 µg/mL. For the same molecule, the “COL MIC” value ([4]; KP-07) was 64 µg/mL, the “COL MIC” value ([4]; KP-08) was 128 µg/mL and the “COL MIC” value ([4]; KP-09) was 32 µg/mL. The “COL MIC” value ([4]; KP-10) was 128 µg/mL and the “MICs, all isolates” value ([4]; all K. pneumoniae isolates) was at least 4 µg/mL.
`CC[C@H](C)[C@H](NC(=O)CN)C(=O)NCC(=O)N[C@@H](C)C(=O)N[C@H](C(=O)N[C@@H](CC(C)C)C(=O)N[C@@H](CCCCN)C(=O)N[C@H](C(=O)N[C@@H](CC(C)C)C(=O)N[C@H](C(=O)N[C@H](C(=O)NCC(=O)N[C@@H](CC(C)C)C(=O)N1CCC[C@H]1C(=O)N[C@@H](C)C(=O)N[C@@H](CC(C)C)C(=O)N[C@H](C(=O)N[C@@H](CO)C(=O)N[C@@H](Cc1c[nH]c2ccccc12)C(=O)N[C@H](C(=O)N[C@@H](CCCCN)C(=O)N[C@@H](CCCNC(=N)N)C(=O)N[C@@H](CCCCN)C(=O)N[C@@H](CCCNC(=N)N)C(=O)N[C@@H](CCC(N)=O)C(=O)N[C@@H](CCC(N)=O)C(N)=O)[C@@H](C)CC)[C@@H](C)CC)[C@@H](C)O)[C@@H](C)O)C(C)C)C(C)C` [melittin] gave an IC50 [5] of 16.13 µg/mL (≈ 5.67 µM).
